Results on 22 compounds are retold here after US10349662B2, “Insecticidal compositions and methods of using the same” (priority 2011, dated 2019).

Values joined by “and” are separate entries in the source; they are usually repeats but may differ in a detail not shown here. Equal entries are not always repeated. Where two headings read alike, the source gives them in different places.

For this data set, the system named is Aedes aegypti mosquitoes. As to the kind of experiment: Topical bioassay on adult female Aedes aegypti mosquitoes (knockdown 1 h, mortality 24 h; Colby calculation for combinations). The class given is in vivo. From the text:
Components of a composition can have a synergistic or additive effect on insecticidal activity. Components have an additive effect when the effect of the combination is equal to the sum of the effects of each individual component. In contrast, components have a synergistic effect when the effect of the combination exceeds the sum of the effects of the components when applied individually. The effect (E) of a combination of two compounds may be calculated using the Colby formula (1) (S. R. Colby, “Calculating Synergistic and Antagonistic Responses of Herbicide Combinations”, Weeds 1967, 15, 20-22):
If the actual insecticidal kill rate is the calculated value (E), then the action of the combination is additive. If the actual insecticidal kill rate exceeds the calculated value (E), then the action of the combination is super-additive, that is, a synergistic effect is present. If the insecticidal kill rate is lower than the calculated value (E), then the action of the combination is considered antagonistic.
Adult female Aedes aegypti mosquitoes were segregated in 18″×18″ screen cages based on date of eclosion, therefore the exact age of the mosquitoes were known for bioassays.
Ten female mosquitoes, aged four to six days after eclosion, were aspirated out of their respective cage and into a small glass jar. The mosquitoes were then anesthetized with CO2 gas for 30 seconds. After the adults were anesthetized, they were quickly placed on a plastic platform for treatment application. Treatments were serially diluted (using a BrandTech Scientific Transferpette S pipette (100-1000 μL), labeled centrifuge tubes, and a vortex mixer) from stocks of insecticides using reagent grade acetone as the diluent to concentrations as indicated for each treatment solution. A treatment solution may contain additional ingredients as indicated for each study.
Using a Hamilton PB00-1 Repeating Dispenser with a Hamilton 25 Microliter Syringe, 0.5 μL of each treatment solution was applied to the thorax of each mosquito. Immediately following the application of the treatment, the mosquitoes were gently transferred into a clean paper cup and covered with screen. The mesh screen prevented the mosquitoes from escaping and allowed the specimens to be viewed for ratings. A cotton ball soaked with 10% sucrose solution was inserted into a side hole of each cup for hydration and nourishment. Each treatment variable in the study was replicated three times using separate cups for each replication.
The untreated controls treatments were anesthetized for 30 seconds and gently transferred to the paper cups. The acetone treated control was treated exactly as described above except that the solution applied to each mosquito was undiluted acetone.
The condition of the mosquitoes in each cup was recorded at one hour and 24 hours after initial treatment. The condition classifications used were (1) alive and flying, (2) alive and unable to fly, or (3) dead. The percent mortality for each treatment was calculated by summing the mortalities of each replicate then calculating the percent dead from the total number of mosquitoes.
Where indicated, the mortality data were subjected to probit analysis using the Statistical Analysis System Version 9.1 program PROC PROBIT (SAS Institute (2003) PROC user's manual, version 9.1. SAS Institute, Cary, N.C.).

Where [1] appears, read: Aedes aegypti, topical, 24 h, read-out: % MORTALITY AFTER 24 HRS, active ingredient alone, 3%, adult, virgin, female Aedes aegypti.
Where [2] appears, read: Aedes aegypti, topical, 24 h, read-out: % MORTALITY AFTER 24 HRS, 0.005 μg.
The mark [3] stands for this setting: Aedes aegypti, topical, 24 h, read-out: % MORTALITY AFTER 24 HRS, insecticide alone, 0.0003 μg, adult, virgin, female Aedes aegypti.
[4] abbreviates: Aedes aegypti, topical, 24 h, read-out: % MORTALITY AFTER 24 HRS, single active, 0.01 μg.
Setting [5] is: active ingredient alone, 3%, adult, virgin, female Aedes aegypti.

Turning to `CC1(C)C2CC=C(C=O)C1C2` [(1R)-(−)-Myrtenal], the “% MORTALITY AFTER 24 HRS” value (2%) is given as 10%.

With `CC1=CC(=O)CC(C)(C)C1` [Isophorone, isophorone], the mortality at 3 % under setting [1] is 57%.

`CC1=CCCCC1` [1-Methyl-1-cyclohexene, 1-methyl-1-cyclohexene]: the mortality at 3 % under setting [1] was 40%.

As for `C=CC(C)=CCC=C(C)CCC=C(C)C` [Farnesene], the 1 hour knockdown runs as follows: (1%) 0%; (3%) 3% and 0% and 7%; (5%) 0%; (10%) 87%; (20%) 100%. For the same compound, the “% MORTALITY AFTER 24 HRS” value is 3% (1%); 3% (3%); 13% (5%); 70% (10%); 100% (20%); 7% (single active, 3%).

`CCOc1ccc(C(C)(C)COCc2cccc(Oc3ccccc3)c2)cc1` [Etofenprox, etofenprox, reference compound]: the 1 hour knockdown is, setting by setting: (0.001 μg/mosquito) 73%; (0.002 μg/mosquito) 83%. Moreover, the mortality at 0.0005 µg/mosquito (Aedes aegypti, topical, 24 h, read-out: % MORTALITY AFTER 24 HRS, 0.0005 μg/mosquito) is 97%. In addition, the mortality at 0.001 µg/mosquito (Aedes aegypti, topical, 24 h, read-out: % MORTALITY AFTER 24 HRS, 0.001 μg/mosquito) was 40%. The mortality at 0.002 µg/mosquito (Aedes aegypti, topical, 24 h, read-out: % MORTALITY AFTER 24 HRS, 0.002 μg/mosquito) is 53%. Moreover, the mortality at 1 ng (Aedes aegypti, topical, 24 h, read-out: % MORTALITY AFTER 24 HRS, single active, 0.001 μg) was 40%. Further, the mortality at 2 ng (Aedes aegypti, topical, 24 h, read-out: % MORTALITY AFTER 24 HRS, single active, 0.002 μg) is 37%.

For the compound `C=C(C)[C@@H]1CC=C(C=O)CC1` [(S)-(−)-Perillaldehyde], the 1 hour knockdown reads like this: (1%) 3%; (5%) 93%; (10%) 100%; (20%) 97%. For the same compound, the “% MORTALITY AFTER 24 HRS” value (1%) is 7%; the “% MORTALITY AFTER 24 HRS” value (2%) is on record as 30%; the “% MORTALITY AFTER 24 HRS” value (5%) is 93%; the “% MORTALITY AFTER 24 HRS” value (10%) is on record as 100%; the “% MORTALITY AFTER 24 HRS” value (20%) was 100%.

As for `O=[N+]([O-])NC1=NCCN1Cc1ccc(Cl)nc1` [Imidacloprid, imidacloprid, reference compound], the mortality at 5 ng is 60% under setting [2] and 30% (Aedes aegypti, topical, 24 h, read-out: % MORTALITY AFTER 24 HRS, single active, 0.005 μg). Moreover, for the setting “Aedes aegypti, topical, 24 h, read-out: % MORTALITY AFTER 24 HRS, single active, 0.0025 μg”, the mortality at 2.5 ng was 83%. Moreover, the mortality at 3 ng (Aedes aegypti, topical, 24 h, read-out: % MORTALITY AFTER 24 HRS, single active, 0.003 μg) is 23%.

For the compound `C=C(C)[C@H]1CC=C(C)CC1` [Limonene], the “% MORTALITY AFTER 24 HRS” value (5%) is recorded as 27%.

Turning to `CC(C)=CC1C(C(=O)OCc2cccc(Oc3ccccc3)c2)C1(C)C` (stereo not drawn) [Sumithrin, sumithrin (d-phenothrin), reference compound], the mortality at 700 pg reads like this: (Aedes aegypti, topical, 24 h, read-out: % MORTALITY AFTER 24 HRS, 0.0007 μg) 27%; (Aedes aegypti, topical, 24 h, read-out: % MORTALITY AFTER 24 HRS, insecticide alone, 0.0007 μg, adult, virgin, female Aedes aegypti) 43%; (Aedes aegypti, topical, 24 h, read-out: % MORTALITY AFTER 24 HRS, single active, 0.0007 μg) 27%. Also, under setting [3], the mortality at 300 pg was 27%.

For the compound `CC/C=C\C/C=C\C/C=C\CCCCCCCC(=O)O` [Linolenic acid], the 1 hour knockdown is 0% (1%), 27% (5%), 40% (10%) and 93% (20%). Moreover, the mortality at 1 % (Aedes aegypti, topical, 24 h, read-out: % MORTALITY AFTER 24 HRS, 1%) was 3%. Moreover, under “Aedes aegypti, topical, 24 h, read-out: % MORTALITY AFTER 24 HRS, 5%”, the mortality at 5 % was 33%. Besides, the mortality at 10 % (Aedes aegypti, topical, 24 h, read-out: % MORTALITY AFTER 24 HRS, 10%) is 83%. The mortality at 20 % (Aedes aegypti, topical, 24 h, read-out: % MORTALITY AFTER 24 HRS, 20%) was 93%. The mortality at 3 % (Aedes aegypti, topical, 24 h, read-out: % MORTALITY AFTER 24 HRS, single active, 3%) was 10%.

Take `CN1COCN(Cc2cnc(Cl)s2)/C1=N\[N+](=O)[O-]` [Thiamethoxam, thiamethoxam, reference compound]: the mortality at 2.5 ng (Aedes aegypti, topical, 24 h, read-out: % MORTALITY AFTER 24 HRS, 0.0025 μg) is 3%. In addition, the mortality at 7.5 ng (Aedes aegypti, topical, 24 h, read-out: % MORTALITY AFTER 24 HRS, single active, 0.0075 μg) is 23%. The mortality at 10 ng under setting [4] is 7%.

For `C=C(C)[C@@H]1CC=C(C)C(=O)C1` [(R)-(−)-Carvone], the “% MORTALITY AFTER 24 HRS” value runs as follows: (3%) 7%; (single active, 3%) 13% and 10%.

Turning to `CC(C)(C)C1=CCCCC1` [1-tert-Butyl . . .], the “% MORTALITY AFTER 24 HRS” value under setting [5] was 30%.

Regarding `C=C(C)[C@H]1CC=C(C)C(=O)C1` [(S)-(+)-Carvone], the “% MORTALITY AFTER 24 HRS” value is, setting by setting: (3%) 13%; (single active, 3%) 7% and 17%.

For the compound `CC1CC=CCC1` (stereo not shown) [4-Methylcyclohexene], the mortality at 3 % under setting [1] is 0%.

With `CC1(C)C(C=C(Cl)Cl)C1C(=O)OCc1cccc(Oc2ccccc2)c1` (stereo not shown) [Permethrin, permethrin, reference compound], the 1 hour knockdown (0.0004 μg/mosquito) is listed as 93%. Further, the mortality at 300 pg is, setting by setting: (Aedes aegypti, topical, 24 h, read-out: % MORTALITY AFTER 24 HRS, 0.0003 μg) 27%; (Aedes aegypti, topical, 24 h, read-out: % MORTALITY AFTER 24 HRS, single active, 0.0003 μg) 37%. In addition, the mortality at 0.0004 µg/mosquito (Aedes aegypti, topical, 24 h, read-out: % MORTALITY AFTER 24 HRS, 0.0004 μg/mosquito) was 70%. Also, under “Aedes aegypti, topical, 24 h, read-out: % MORTALITY AFTER 24 HRS, single active, 0.0004 μg”, the mortality at 400 pg is 47%.

On to `CC1=CC(=O)CC(C)C1` (stereo not shown) [3.5-Dimethyl . . .], for which, under setting [5], the “% MORTALITY AFTER 24 HRS” value is recorded as 30%.

For the compound `C#CCC1=C(C)C(OC(=O)C2C(C=C(C)C)C2(C)C)CC1=O` (stereo not shown) [Prallethrin, prallethrin, reference compound], the mortality at 750 pg was 37% (Aedes aegypti, topical, 24 h, read-out: % MORTALITY AFTER 24 HRS, 0.00075 μg) and 20% (Aedes aegypti, topical, 24 h, read-out: % MORTALITY AFTER 24 HRS, single active, 0.00075 μg). For the same compound, the mortality at 300 pg under setting [3] is 7%. Also, the mortality at 400 pg (Aedes aegypti, topical, 24 h, read-out: % MORTALITY AFTER 24 HRS, insecticide alone, 0.0004 μg, adult, virgin, female Aedes aegypti) is 40%.

For `CN/C(=N\[N+](=O)[O-])NCc1cnc(Cl)s1` [Clothianidin, clothianidin, reference compound], the mortality at 5 ng under setting [2] is 7%. Moreover, the mortality at 10 ng was 50% (Aedes aegypti, topical, 24 h, read-out: % MORTALITY AFTER 24 HRS, 0.01 μg) and 47% under setting [4]. In addition, the mortality at 25 ng (Aedes aegypti, topical, 24 h, read-out: % MORTALITY AFTER 24 HRS, 0.025 μg) was 40%. Further, the mortality at 15 ng (Aedes aegypti, topical, 24 h, read-out: % MORTALITY AFTER 24 HRS, single active, 0.015 μg) was 0%. Also, under “Aedes aegypti, topical, 24 h, read-out: % MORTALITY AFTER 24 HRS, single active, 0.02 μg”, the mortality at 20 ng is 43%.

With `C=C(C)[C@H]1CC=C(C)C(=O)C1` [(S)-(−)-Carvone], the “% MORTALITY AFTER 24 HRS” value (3%) is 20%.

`CC1=CC(=O)CC(C)C1` (stereo not shown) [3,5-Dimethyl . . .]: the “% MORTALITY AFTER 24 HRS” value under setting [5] is given as 63%.

With `CC1=CCC(=C(C)C)CC1` [Terpinolene, terpinolene], under setting [1], the mortality at 3 % is 20%.
